Experimental data taken from US9518041B2, “(+)-5-(3,4-difluorophenyl)-5-[(3-methyl-2-oxopyridin-1(2H)-yl)methyl]imidazolidine-2,4-dione and drug containing same” (KAKEN PHARMACEUTICAL CO., LTD., priority 2013, dated 2016).
In brackets after ≈: the same amount, converted by molar mass. Like-named read-outs stand apart in the source and are kept apart here.

How the values were obtained:
[1] = Solubility test in the 2nd fluid for the disintegration test of the Japanese Pharmacopoeia; type: physicochemical; details: pH 6.8, aqueous buffer, thermodynamic from solid; pH6.8, shaken for 2 hours
Description: Test substances (10.0 mg) were correctly weighed, and methanol was added to adjust to 10 mL. The solution was diluted by 10 times to prepare a solution of […].
In a centrifuge tube 5.0 mg of the test substance was weighed, added with 5.0 mL of the 2nd fluid for the disintegration test of the Japanese pharmacopoeia, supersonified for 3 minutes, and shaken for 2 hours thereafter. This solution was filitered with a membrane filter (0.2 μm), 500 μL the filtrate was measured, 500 μL of acetonitrile was added, and fully stirred to obtain the sample solution.
To 250 mL of 0.2 mol/L potassium dihydrogenphosphate aqueous solution, 118 mL of 0.2 mol/L sodium hydroxide aqueous solution and water was added to adjust to 1000 mL.
Using a high performance liquid chromatography, each of the sample solution for a calibration curve and sample solution for solubility measurement is measured twice to calculate an average area for each.
Based on the average area obtained in the above mentioned method, using an equation below to calculate a solubility. Solubility in the 2nd fluid for the disintegration test of the Japanese pharmacopoeia(μg/mL)=((P×2)/S)×100
S: Average area on the sample solution for a calibration curve
P: Average area on the sample solution for solubility measurement

[2] = Solubility test in organic solvents (propylene glycol, butylene glycol); type: physicochemical; details: organic solvent or mixture, thermodynamic from solid, visual observation after 24 hours at room temperature
Description: Under room temperature conditions, in a 0.5 mL polypropylene tube, (+)-5-(3,4-difluorophenyl)-5-[(3-methyl-2-oxopyridin-1(2H)-yl)methyl]imidazolidine-2,4-dione and (±)-5-(3,4-difluorophenyl)-5-[(3-methyl-2-oxopyridin-1(2H)-yl)methyl]imidazolidine-2,4-dione measured in advance for a suitable amount were prepared, respectively. In each tube, solvent (Propylene glycol (PG) or butylene glycol (BG)) was added with various amounts, e.g. 10 times, 20 times or 100 times amount of the test compound, and stirred with a vortex mixer. With a table ultrasonic washer set at 37° C., ultrasonication treatment was given for 10 minutes; after warming for an hour in a thermostat chamber, each were kept standing for 24 hours at room temperature. The test solutions were observed by sight to evaluate the states in accordance with the determination criterion given below.
Determination criterion consisted of the following two categories:
“Soluble”: Test compound dissolved; no undissolved substances confirmed by visual observation.
“Insoluble”: Test compound remains undissolved; undissolved substances confirmed by visual observation.

## Cc1cccn(CC2(c3ccc(F)c(F)c3)NC(=O)NC2=O)c1=O (racemic) [(±)-5-(3,4-difluorophenyl)-5-[(3-methyl-2-oxopyridin-1(2H)-yl)methyl]imidazolidine-2,4-dione]
[1]
  solubility at 2 h: 45 µg/mL (≈ 0.135 mM)
[2]; BG, 20 times amount of the test compound, read-out: Solubility in butylene glycol (BG), 20 times amount
  solubility at 24 h: < 50000 µg/mL
[2]; BG, 100 times amount of the test compound, read-out: Solubility in butylene glycol (BG), 100 times amount
  solubility at 24 h: > 10000 µg/mL
[2]; PG, 10 times amount of the test compound, read-out: Solubility in propylene glycol (PG), 10 times amount
  solubility at 24 h: < 50000 µg/mL
[2]; PG, 20 times amount of the test compound, read-out: Solubility in propylene glycol (PG), 20 times amount
  solubility at 24 h: < 50000 µg/mL
[2]; PG, 100 times amount of the test compound, read-out: Solubility in propylene glycol (PG), 100 times amount
  solubility at 24 h: > 10000 µg/mL
